Among the test systems are HL-60(TB) leukemia; TK-10 renal; PC-3 prostate; NCI/ADR-RES ovarian; BT-549 breast; HCT-116 colon; M14 melanoma; SK-MEL-2 melanoma; K-562 leukemia; SNB-19 CNS.
Common to all, as to assay: NCI-60 cell line screen, 48 h

Molecules are shown by their SMILES.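 Test compounds were applied to cells in 96-well plates for 48 hours at 5 doses. GI50 = concentration required for 50% inhibition of growth. At the TGI there is no net growth.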

`N#Cc1c2ccccc2c2nnc3cc(Cl)c(Cl)cc3n12`: the GI50 in the test on HL-60(TB) leukemia is 22.6 µM; in the test with TK-10 renal, above 100 µM; in the test with PC-3 prostate, 30 µM; in the test on NCI/ADR-RES ovarian, 31.6 µM; in the test on BT-549 breast it was 60.9 µM; in the test on HCT-116 colon, 34.2 µM. Also, the values for the GI50 with M14 melanoma, in the test on SK-MEL-2 melanoma and with K-562 leukemia were above 100 µM, 60.7 µM and 29 µM, respectively. The TGI in the test on HL-60(TB) leukemia was 70.2 µM; in the test on TK-10 renal it was above 100 µM; in the test on PC-3 prostate, 73.7 µM; with NCI/ADR-RES ovarian it was 97.8 µM; in the test on BT-549 breast it was above 100 µM; in the test on HCT-116 colon, above 100 µM. Further, the TGI in the test on M14 melanoma is above 100 µM; in the test with SK-MEL-2 melanoma, above 100 µM; in the test with K-562 leukemia, 89.1 µM.

Take `CC1=C(C(=O)Nc2ccc(F)c(Cl)c2)C(c2cccc(Cl)c2)NC(=O)N1` (stereo unspecified): the TGI in the test on HL-60(TB) leukemia is 0.156 µM; in the test on SNB-19 CNS, 39 µM; with TK-10 renal it was 41.6 µM; with PC-3 prostate, 46.9 µM; with NCI/ADR-RES ovarian it was 67.6 µM; with BT-549 breast, 42 µM. Also, the TGI amounted to 27.9 µM with HCT-116 colon, 31.7 µM in the test with M14 melanoma and 30.5 µM with SK-MEL-2 melanoma. Further, the GI50 with SNB-19 CNS is 18.1 µM; in the test with TK-10 renal, 15.8 µM; with PC-3 prostate, 17.2 µM; in the test on NCI/ADR-RES ovarian, 27.5 µM; in the test with BT-549 breast, 19 µM; in the test with HCT-116 colon it was 14.7 µM. Moreover, the GI50 with M14 melanoma was 15.8 µM; with SK-MEL-2 melanoma it was 15.7 µM.

For the molecule `C[n+]1c2ccccc2c(NC2CCNCC2)c2[nH]c3ccccc3c21`, the GI50 is 1.8 µM in the test with HL-60(TB) leukemia; 0.269 µM in the test with SNB-19 CNS; 2.33 µM with TK-10 renal; 1.53 µM in the test on PC-3 prostate; above 100 µM in the test with NCI/ADR-RES ovarian; 2.13 µM in the test on BT-549 breast. For the same molecule, the GI50 with HCT-116 colon was 0.812 µM; with M14 melanoma, 2.41 µM; with SK-MEL-2 melanoma it was 0.207 µM. In addition, the TGI in the test with HL-60(TB) leukemia was above 22.6 µM; in the test on SNB-19 CNS, 2.2 µM; in the test on TK-10 renal, 8.53 µM; with PC-3 prostate, 5.75 µM; in the test on NCI/ADR-RES ovarian, above 100 µM; in the test with BT-549 breast, 13.3 µM. In addition, the TGI in the test on HCT-116 colon came out at 4.53 µM; in the test on M14 melanoma it was 13.4 µM; with SK-MEL-2 melanoma, 1.22 µM.

As for `O=C(Nc1ccccc1Cl)c1ccc(NC2=C(Cl)C(=O)N(Cc3ccccc3)C2=O)cc1`, the GI50 was 22.5 µM in the test with HL-60(TB) leukemia; above 100 µM with SNB-19 CNS; 46.7 µM with TK-10 renal; 40 µM in the test with PC-3 prostate; 86.2 µM in the test on NCI/ADR-RES ovarian; 43 µM with BT-549 breast. Also, the GI50 with HCT-116 colon is 21.4 µM; in the test with M14 melanoma, 79.4 µM; in the test with K-562 leukemia it was 21.8 µM. The TGI is 50.6 µM in the test with HL-60(TB) leukemia; above 100 µM in the test with SNB-19 CNS; above 100 µM in the test with TK-10 renal; above 100 µM in the test with PC-3 prostate; above 100 µM in the test on NCI/ADR-RES ovarian; above 100 µM with BT-549 breast. The results for the TGI with HCT-116 colon, in the test with M14 melanoma and in the test with K-562 leukemia were 47.5 µM, above 100 µM and 49.3 µM, respectively.

As for `CC1=C(C)C(=O)C(C(C)C2=C(C)C(=O)C(C)=C(C)C2=O)=C(C)C1=O`, the GI50 is 6.94 µM in the test on HL-60(TB) leukemia; 90.6 µM in the test on TK-10 renal; 20.9 µM in the test on PC-3 prostate; 17.9 µM with NCI/ADR-RES ovarian; 45.1 µM in the test with BT-549 breast; 10.8 µM in the test on HCT-116 colon. Also, the GI50 is 53.7 µM in the test on M14 melanoma, 33.8 µM with SK-MEL-2 melanoma and 13.2 µM in the test with K-562 leukemia. Further, the TGI was 24.5 µM in the test on HL-60(TB) leukemia; above 100 µM in the test on TK-10 renal; above 100 µM in the test on PC-3 prostate; 52 µM with NCI/ADR-RES ovarian; above 100 µM in the test with BT-549 breast; 24.8 µM in the test on HCT-116 colon. In addition, the TGI with M14 melanoma, with SK-MEL-2 melanoma and in the test on K-562 leukemia was above 100 µM each time.

Regarding `CNCCNc1nc2ccccc2c2c(=O)c3cccc(OC)c3sc12`, the GI50 with HL-60(TB) leukemia is 1.8 µM; with PC-3 prostate, 1.24 µM; in the test on NCI/ADR-RES ovarian, 1.23 µM; in the test with BT-549 breast, 1.7 µM; in the test with HCT-116 colon, 0.547 µM; in the test with M14 melanoma, 1.59 µM. Moreover, the values for the GI50 in the test with SK-MEL-2 melanoma and in the test on K-562 leukemia were 1.78 µM and 0.596 µM, respectively. Moreover, the TGI came to 3.64 µM with HL-60(TB) leukemia; 2.8 µM in the test on PC-3 prostate; 2.84 µM with NCI/ADR-RES ovarian; 3.65 µM with BT-549 breast; 1.86 µM in the test on HCT-116 colon; 3.01 µM with M14 melanoma. Besides, the values for the TGI in the test on SK-MEL-2 melanoma and in the test with K-562 leukemia were 3.62 µM and 2.65 µM, respectively.

As for `O=c1c2ccccc2nc(-c2ccc(Cl)cc2)n1O`, the TGI in the test on HL-60(TB) leukemia is 65 µM; with SNB-19 CNS it was above 100 µM; in the test on TK-10 renal it was 88 µM; with PC-3 prostate it was above 100 µM; in the test with NCI/ADR-RES ovarian, 58.2 µM; in the test with BT-549 breast it was above 100 µM. Besides, the TGI with HCT-116 colon, with M14 melanoma and in the test on K-562 leukemia was above 100 µM in each case.

Turning to `NC(=O)NC(=O)CI`, the GI50 in the test on HL-60(TB) leukemia is 1.94 µM; in the test on SNB-19 CNS, 34 µM; with PC-3 prostate, 12.6 µM; with NCI/ADR-RES ovarian, 18.7 µM; in the test with BT-549 breast, 4.28 µM; in the test with HCT-116 colon, 1.39 µM. The results for the GI50 with M14 melanoma, in the test with SK-MEL-2 melanoma and in the test with K-562 leukemia were 5.12 µM, 5.78 µM and 1.03 µM, respectively. In addition, the TGI in the test with HL-60(TB) leukemia came out at 4.02 µM; with SNB-19 CNS it was 97.7 µM; in the test on PC-3 prostate, 26.8 µM; in the test with NCI/ADR-RES ovarian, 41.9 µM; with BT-549 breast, 11.3 µM; in the test with HCT-116 colon it was 3.12 µM. In addition, the figures for the TGI with M14 melanoma, in the test on SK-MEL-2 melanoma and in the test with K-562 leukemia were 17.4 µM, 18.7 µM and 3.6 µM, respectively.

Regarding `O=C1c2cccnc2-c2nc(-c3ccc([N+](=O)[O-])cc3)cc3c2c1nc1ccccc13`, the GI50 with SNB-19 CNS was 6.4 µM; in the test on TK-10 renal, 8.41 µM; in the test on PC-3 prostate, 3.95 µM; with NCI/ADR-RES ovarian it was 2.44 µM; with BT-549 breast it was 10.4 µM; in the test with HCT-116 colon, 2.56 µM. Also, the GI50 with M14 melanoma was 1.9 µM; in the test on SK-MEL-2 melanoma it was 3.3 µM; with K-562 leukemia, 20.7 µM. The TGI was 18.3 µM in the test with SNB-19 CNS; 24.9 µM in the test with TK-10 renal; above 100 µM in the test on PC-3 prostate; 10.3 µM with NCI/ADR-RES ovarian; 28.6 µM in the test on BT-549 breast; above 26.1 µM with HCT-116 colon. The TGI in the test on M14 melanoma is 4.43 µM; with SK-MEL-2 melanoma, 26.5 µM; with K-562 leukemia, above 100 µM.

For `COc1ccc2c(CNCCCCO)cc3cc4c(cc3c2c1)OCO4`, the GI50 in the test on SNB-19 CNS is 1.71 µM; with TK-10 renal, 1.85 µM; in the test with PC-3 prostate, 0.986 µM; in the test on NCI/ADR-RES ovarian, 1.45 µM; in the test with BT-549 breast it was 3.83 µM; in the test on HCT-116 colon, 0.609 µM. In addition, the GI50 with M14 melanoma is 2.07 µM; in the test on SK-MEL-2 melanoma, 1.63 µM; with K-562 leukemia, 1.07 µM. For the same molecule, the TGI with SNB-19 CNS was 9.78 µM; in the test on TK-10 renal, 9.98 µM; with PC-3 prostate it was 7.18 µM; with NCI/ADR-RES ovarian it was 8.12 µM; in the test on BT-549 breast, 11.9 µM; in the test with HCT-116 colon it was 9.5 µM. In addition, the TGI with M14 melanoma turned out to be 4.68 µM; in the test on SK-MEL-2 melanoma, 3.93 µM; with K-562 leukemia it was 20.3 µM.

`O=C1/C(=C/c2ccc(O)cc2)CCC1CNc1ccc(Cl)cc1` (stereo unspecified): the TGI in the test with SNB-19 CNS was found to be 28.6 µM; with TK-10 renal, 10.3 µM; with PC-3 prostate, 18.2 µM; in the test with NCI/ADR-RES ovarian it was 20.1 µM; with BT-549 breast it was 26.5 µM; in the test on HCT-116 colon, 5.77 µM. Besides, the values for the TGI with M14 melanoma, with SK-MEL-2 melanoma and with K-562 leukemia were 3.57 µM, 28.7 µM and 10.2 µM, respectively.

`NS(=O)(=O)c1ccc(-n2nc(-c3ccc(Cl)cc3)cc2C2=CC(=O)C=CC2=O)cc1`: the GI50 in the test on HL-60(TB) leukemia was 34 µM; in the test with TK-10 renal, 12.5 µM; in the test on PC-3 prostate, 19.4 µM; with NCI/ADR-RES ovarian it was 27.2 µM; with BT-549 breast, 22.5 µM; with M14 melanoma it was 23 µM. Also, the GI50 in the test on SK-MEL-2 melanoma was 58 µM; with K-562 leukemia, 19.4 µM. The TGI in the test on HL-60(TB) leukemia was above 100 µM; with TK-10 renal, 28.3 µM; in the test on PC-3 prostate, 56.2 µM; with NCI/ADR-RES ovarian it was 63.5 µM; with BT-549 breast, 70.8 µM; in the test with M14 melanoma, 42.8 µM. The TGI is above 100 µM in the test on SK-MEL-2 melanoma and 74.1 µM with K-562 leukemia.

`COc1ccc(C2CC(c3cc(OC)c(OC)c(OC)c3)=NN2)cc1` (stereo unspecified): the GI50 in the test on HL-60(TB) leukemia is 2.19 µM; with SNB-19 CNS it was 15.6 µM; with TK-10 renal, 42 µM; in the test with PC-3 prostate, 6.03 µM; in the test with NCI/ADR-RES ovarian, 6.67 µM; in the test with BT-549 breast it was 8.02 µM. Further, the GI50 with HCT-116 colon was 3.93 µM; in the test on M14 melanoma, 13.3 µM; with K-562 leukemia it was 2.66 µM. The TGI was 12 µM in the test on HL-60(TB) leukemia; above 100 µM in the test with SNB-19 CNS; above 100 µM in the test on TK-10 renal; above 100 µM with PC-3 prostate; 94.8 µM with NCI/ADR-RES ovarian; above 100 µM in the test with BT-549 breast. Moreover, the TGI with HCT-116 colon, in the test with M14 melanoma and in the test on K-562 leukemia was above 100 µM throughout.
